pIC50: −log10 of the molar value.
Tested on: 186277-243-T-J2-PDC complex spheroid viability
Test: Anticancer human tumor 186277-243-T-J2-PDC patient-derived colon adenocarcinoma cell line growth inhibition [POLQ]
Settings: for pIC50: curve of first compound; for viability, T/C: stronger effect = lower value; active means viability on the fitted dose curve at most 10% of control; inactive means the rest
How it was run: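 Patient-derived tumour cells were co-cultured with HUVEC and mesenchymal stem cells as multicellular spheroids at 37 °C. They were treated with POLQ inhibitors (novobiocin, ART-558, RP6685) alone or combined with other agents. Top concentrations were at or near clinical Cmax (otherwise 10 microM; SN-38 at 1 microM), decreasing in half-log steps.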

[1] = second compound 0.0316 µM, first compound 0.0316 µM
[2] = second compound 0.0316 µM, first compound 0.1 µM
[3] = second compound 0.0316 µM, first compound 0.316 µM
[4] = second compound 0.0316 µM, first compound 1 µM
[5] = second compound 0.0316 µM, first compound 3.16 µM
[6] = second compound 0.0316 µM, first compound 10 µM
[7] = second compound 0.1 µM, first compound 0.0316 µM
[8] = second compound 0.1 µM, first compound 0.1 µM
[9] = second compound 0.1 µM, first compound 0.316 µM
[10] = second compound 0.1 µM, first compound 1 µM
[11] = second compound 0.1 µM, first compound 3.16 µM
[12] = second compound 0.1 µM, first compound 10 µM
[13] = second compound 0.316 µM, first compound 0.0316 µM
[14] = second compound 0.316 µM, first compound 0.1 µM
[15] = second compound 0.316 µM, first compound 0.316 µM
[16] = second compound 0.316 µM, first compound 1 µM
[17] = second compound 0.316 µM, first compound 3.16 µM
[18] = second compound 0.316 µM, first compound 10 µM
[19] = second compound 1 µM, first compound 0.0316 µM
[20] = second compound 1 µM, first compound 0.1 µM
[21] = second compound 1 µM, first compound 0.316 µM
[22] = second compound 1 µM, first compound 1 µM
[23] = second compound 1 µM, first compound 3.16 µM
[24] = second compound 1 µM, first compound 10 µM
[25] = second compound 3.16 µM, first compound 0.0316 µM
[26] = second compound 3.16 µM, first compound 0.1 µM
[27] = second compound 3.16 µM, first compound 0.316 µM
[28] = second compound 3.16 µM, first compound 1 µM
[29] = second compound 3.16 µM, first compound 3.16 µM
[30] = second compound 3.16 µM, first compound 10 µM
[31] = second compound 10 µM, first compound 0.0316 µM
[32] = second compound 10 µM, first compound 0.1 µM
[33] = second compound 10 µM, first compound 0.316 µM
[34] = second compound 10 µM, first compound 1 µM
[35] = second compound 10 µM, first compound 3.16 µM
[36] = second compound 10 µM, first compound 10 µM
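Further: spheroids exposed to compounds for seven days.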
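Wherever viability, T/C is given: 100% = DMSO vehicle control viability.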

CNCc1ccc(-c2[nH]c3cc(F)cc4c3c2CCNC4=O)cc1 + Nc1ccc(C#CCN(C(=O)Cc2ncc(C(F)(F)F)cc2C(F)(F)F)c2ccc(F)cc2)nn1
< 5.00: pIC50 (second compound 0.0316 µM) | pIC50 (second compound 0.1 µM) | pIC50 (second compound 0.316 µM) | pIC50 (second compound 1 µM) | pIC50 (second compound 3.16 µM) | pIC50 (second compound 10 µM)
inactive: viability, T/C [1] 121% | viability, T/C [2] 104% | viability, T/C [3] 129% | viability, T/C [4] 85.5% | viability, T/C [5] 112% | viability, T/C [6] 126% | viability, T/C [7] 101% | viability, T/C [8] 96.7% | viability, T/C [9] 108% | viability, T/C [10] 95.5% | viability, T/C [11] 125% | viability, T/C [12] 121% | viability, T/C [13] 100% | viability, T/C [14] 109% | viability, T/C [15] 103% | viability, T/C [16] 102% | viability, T/C [17] 105% | viability, T/C [18] 116% | viability, T/C [19] 92.4% | viability, T/C [20] 118% | viability, T/C [21] 95% | viability, T/C [22] 111% | viability, T/C [23] 98.7% | viability, T/C [24] 132% | viability, T/C [25] 96.9% | viability, T/C [26] 118% | viability, T/C [27] 100% | viability, T/C [28] 99.6% | viability, T/C [29] 111% | viability, T/C [30] 110% | viability, T/C [31] 108% | viability, T/C [32] 106% | viability, T/C [33] 106% | viability, T/C [34] 103% | viability, T/C [35] 88.2% | viability, T/C [36] 116%

CC1COCCN1c1cc(C2(O)CC3CCC(C2)O3)c2cnn(-c3ccn[nH]3)c2n1 (stereo not given) + COC1C(OC(N)=O)C(O)C(Oc2ccc3c(O)c(NC(=O)c4ccc(O)c(CC=C(C)C)c4)c(=O)oc3c2C)OC1(C)C
active: viability, T/C [3] 4.13% | viability, T/C [4] 2.97% | viability, T/C [5] 3.3% | viability, T/C [6] 3.36% | viability, T/C [8] 8.95% | viability, T/C [9] 3.87% | viability, T/C [10] 2.7% | viability, T/C [11] 3.24% | viability, T/C [12] 3.18% | viability, T/C [15] 4.98% | viability, T/C [16] 2.92% | viability, T/C [17] 3.45% | viability, T/C [18] 3.48% | viability, T/C [21] 3.79% | viability, T/C [22] 2.66% | viability, T/C [23] 3.46% | viability, T/C [24] 3.76% | viability, T/C [26] 9.45% | viability, T/C [27] 4.01% | viability, T/C [28] 2.86% | viability, T/C [29] 3.33% | viability, T/C [30] 3.12% | viability, T/C [32] 7.48% | viability, T/C [33] 4.86% | viability, T/C [34] 2.78% | viability, T/C [35] 4.14% | viability, T/C [36] 3.73%
inactive: viability, T/C [1] 56.8% | viability, T/C [2] 11% | viability, T/C [7] 60% | viability, T/C [13] 60% | viability, T/C [14] 12.3% | viability, T/C [19] 56.2% | viability, T/C [20] 12.9% | viability, T/C [25] 63% | viability, T/C [31] 47.8%
7.38: pIC50 (second compound 3.16 µM)
> 7.50: pIC50 (second compound 10 µM)
7.43: pIC50 (second compound 0.0316 µM) | pIC50 (second compound 1 µM)
7.40: pIC50 (second compound 0.1 µM)
7.39: pIC50 (second compound 0.316 µM)

CC[C@@]1(O)C(=O)OCc2c1cc1n(c2=O)Cc2cc3c(CN(C)C)c(O)ccc3nc2-1 + COC1C(OC(N)=O)C(O)C(Oc2ccc3c(O)c(NC(=O)c4ccc(O)c(CC=C(C)C)c4)c(=O)oc3c2C)OC1(C)C
7.32: pIC50 (second compound 10 µM)
7.28: pIC50 (second compound 0.316 µM)
inactive: viability, T/C (second compound 0.0316 µM, first compound 0.000316 µM) 105% | viability, T/C (second compound 0.0316 µM, first compound 0.001 µM) 103% | viability, T/C (second compound 0.0316 µM, first compound 0.00316 µM) 97.4% | viability, T/C (second compound 0.0316 µM, first compound 0.01 µM) 114% | viability, T/C [1] 65.5% | viability, T/C [2] 43% | viability, T/C (second compound 0.1 µM, first compound 0.000316 µM) 96.1% | viability, T/C (second compound 0.1 µM, first compound 0.001 µM) 99.1% | viability, T/C (second compound 0.1 µM, first compound 0.00316 µM) 117% | viability, T/C (second compound 0.1 µM, first compound 0.01 µM) 115% | viability, T/C [7] 60.4% | viability, T/C [8] 42% | viability, T/C (second compound 0.316 µM, first compound 0.000316 µM) 101% | viability, T/C (second compound 0.316 µM, first compound 0.001 µM) 113% | viability, T/C (second compound 0.316 µM, first compound 0.00316 µM) 104% | viability, T/C (second compound 0.316 µM, first compound 0.01 µM) 109% | viability, T/C [13] 57.9% | viability, T/C [14] 40% | viability, T/C (second compound 1 µM, first compound 0.000316 µM) 105% | viability, T/C (second compound 1 µM, first compound 0.001 µM) 105% | viability, T/C (second compound 1 µM, first compound 0.00316 µM) 97.1% | viability, T/C (second compound 1 µM, first compound 0.01 µM) 120% | viability, T/C [19] 57% | viability, T/C [20] 38.5% | viability, T/C (second compound 3.16 µM, first compound 0.000316 µM) 97.3% | viability, T/C (second compound 3.16 µM, first compound 0.001 µM) 107% | viability, T/C (second compound 3.16 µM, first compound 0.00316 µM) 102% | viability, T/C (second compound 3.16 µM, first compound 0.01 µM) 107% | viability, T/C [25] 56.6% | viability, T/C [26] 38.9% | viability, T/C (second compound 10 µM, first compound 0.000316 µM) 107% | viability, T/C (second compound 10 µM, first compound 0.001 µM) 119% | viability, T/C (second compound 10 µM, first compound 0.00316 µM) 104% | viability, T/C (second compound 10 µM, first compound 0.01 µM) 110% | viability, T/C [31] 56.3% | viability, T/C [32] 38.9%
7.22: pIC50 (second compound 0.1 µM)
7.31: pIC50 (second compound 1 µM) | pIC50 (second compound 3.16 µM)
7.16: pIC50 (second compound 0.0316 µM)

Nc1ccn(C2OC(CO)C(O)C2(F)F)c(=O)n1 (stereo not given) + Nc1ccc(C#CCN(C(=O)Cc2ncc(C(F)(F)F)cc2C(F)(F)F)c2ccc(F)cc2)nn1
> 7.50: pIC50 (second compound 0.0316 µM) | pIC50 (second compound 0.1 µM) | pIC50 (second compound 0.316 µM) | pIC50 (second compound 1 µM) | pIC50 (second compound 3.16 µM) | pIC50 (second compound 10 µM)
inactive: viability, T/C [1] 14.7% | viability, T/C [2] 11.5% | viability, T/C [3] 11.6% | viability, T/C [4] 14% | viability, T/C [5] 14% | viability, T/C [6] 13.6% | viability, T/C [7] 13.9% | viability, T/C [8] 12.2% | viability, T/C [9] 12.4% | viability, T/C [10] 13.2% | viability, T/C [11] 15% | viability, T/C [12] 13.8% | viability, T/C [13] 14.4% | viability, T/C [14] 12.9% | viability, T/C [15] 12.7% | viability, T/C [16] 13.4% | viability, T/C [17] 14.1% | viability, T/C [18] 15.2% | viability, T/C [19] 12.8% | viability, T/C [20] 12% | viability, T/C [21] 11.7% | viability, T/C [22] 13% | viability, T/C [23] 14.8% | viability, T/C [24] 14.3% | viability, T/C [25] 13% | viability, T/C [26] 13.9% | viability, T/C [27] 10.6% | viability, T/C [28] 11.9% | viability, T/C [29] 15.2% | viability, T/C [30] 15.3% | viability, T/C [31] 12.5% | viability, T/C [32] 11.3% | viability, T/C [33] 11.5% | viability, T/C [34] 11.5% | viability, T/C [35] 12.9% | viability, T/C [36] 13.9%

CCCS(=O)(=O)Nc1ccc(F)c(C(=O)c2c[nH]c3ncc(-c4ccc(Cl)cc4)cc23)c1F + Nc1ccc(C#CCN(C(=O)Cc2ncc(C(F)(F)F)cc2C(F)(F)F)c2ccc(F)cc2)nn1
inactive: viability, T/C [1] 89.6% | viability, T/C [2] 100% | viability, T/C [3] 88.9% | viability, T/C [4] 79.8% | viability, T/C [5] 113% | viability, T/C [6] 66.3% | viability, T/C [7] 91.5% | viability, T/C [8] 87.7% | viability, T/C [9] 86.8% | viability, T/C [10] 82.9% | viability, T/C [11] 91.5% | viability, T/C [12] 60.9% | viability, T/C [13] 89.7% | viability, T/C [14] 90.5% | viability, T/C [15] 89% | viability, T/C [16] 94.3% | viability, T/C [17] 85.8% | viability, T/C [18] 57.8% | viability, T/C [19] 100% | viability, T/C [20] 91.2% | viability, T/C [21] 109% | viability, T/C [22] 94.4% | viability, T/C [23] 87.8% | viability, T/C [24] 62.8% | viability, T/C [25] 120% | viability, T/C [26] 89.5% | viability, T/C [27] 85% | viability, T/C [28] 93.4% | viability, T/C [29] 88% | viability, T/C [30] 63.6% | viability, T/C [31] 108% | viability, T/C [32] 97.7% | viability, T/C [33] 85.7% | viability, T/C [34] 95.9% | viability, T/C [35] 85.1% | viability, T/C [36] 48.8%
< 5.00: pIC50 (second compound 0.0316 µM) | pIC50 (second compound 0.1 µM) | pIC50 (second compound 0.316 µM) | pIC50 (second compound 1 µM) | pIC50 (second compound 3.16 µM)
5.00: pIC50 (second compound 10 µM)

Reference: PubChem BioAssay AID1963854 (Molecular Pharmacology Branch, DTP, NCI, 2024)
